Patent US20210330611A1, “THERAPY FOR NEUROLOGICAL DISEASES/DISORDERS” (priority 2020, published 2021)
Where a name gives a salt, the structure may show the parent alone. Read-outs that look alike come from different tables or passages of the source.

Key:
[1] = system: fibrin-induced microglia activation; test: Image-based assay of fibrin-induced microglia activation (HTS and dose response); type: cell-based, rat; conditions: for IC50 / inhibition at 10 µM: Rattus norvegicus, Microglia; for inhibition at 10 µM: read-out: Fibrin % inhibition
[2] = system: LPS-induced microglia activation; test: Image-based assay of LPS-induced microglia activation (HTS and dose response); type: cell-based, rat; conditions: Rattus norvegicus, Microglia; for inhibition at 10 µM: read-out: LPS % inhibition
[3] = system: fibrin- and LPS-induced microglia activation; test: cells; type: cell-based, rat; conditions: for inhibition at 10 µM: Rattus norvegicus
[4] = system: primary rat microglia; conditions: rat
[5] = system: primary rat microglia; conditions: rat; remark: listed apart in the source
[6] = in vitro; conditions: rat, Cell Toxicity IC50 (uM) [cFib assay]
[7] = in vitro; conditions: rat
[8] = 48 h, Table 1, dose response 0.001-20 μM, triplicates, primary rat microglia, 48 h, read-out: Fibrin IC50
[9] = dose response, fibrin-induced microglia activation, read-out: Fibrin IC50
[10] = fibrin-induced microglia activation, dose response, read-out: Fibrin IC50 (uM) (Suppl. Table 7)
[11] = primary microglia HTS, fibrin stimulation, increased cell size (>800 μm^2) as marker of activation
[12] = 48 h, Table 1, dose response 0.001-20 μM, triplicates, primary rat microglia, 48 h, read-out: LPS IC50
[13] = 48 h, primary microglia HTS, LPS stimulation, increased cell size (>800 μm^2) as marker of activation
[14] = LPS-induced microglia activation, dose response, read-out: LPS IC50 (uM) (Suppl. Table 7)
[15] = dose response, LPS-induced microglia activation, read-out: LPS IC50
[16] = HTS of 1907 compounds, quadrant by fibrin and LPS inhibition
[17] = Microglia, HTS hit classification, read-out: Hit
[18] = hit classification in microglia HTS, read-out: Cherry-picked Hit (Suppl. Table 7)
[19] = quadrant by fibrin and LPS inhibition in HTS of 1907 compounds
[20] = read-out: Fibrin IC50 (uM) (Suppl. Table 7)
[21] = read-out: LPS IC50 (uM) (Suppl. Table 7)
[22] = Microglia, read-out: Cherry-picked Hit (Suppl. Table 7)
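Throughout, for Fibrin % cell toxicity: share of dead cells sized under 150 µm2 at 10 µM in fibrin-stimulated microglia HTS.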

| SMILES | IC50 [1, 8] | IC50 [1, 9] | IC50 [1, 10] | inhibition at 10 µM [1, 11] | IC50 [2, 12] | inhibition at 10 µM [2, 13] | IC50 [2, 14] | IC50 [2, 15] | Quadrant (FIG. 5b) [3, 16] | inhibition at 10 µM [3, 17] | inhibition at 10 µM [3, 18] | Quadrant (FIG. 5b) ([3]; Table 1, screen at 10 μM) | Quadrant (FIG. 5b) [3, 19] | Fibrin % cell toxicity [4] | LPS % cell toxicity [5] | IC50 [6] | IC50 [7] | IC50 ([1]; 48 h, read-out: Fibrin IC50) | IC50 ([1]; read-out: Fibrin IC50 (uM)) | IC50 [1, 20] | also measured |
| --- | --- | --- | --- | --- | --- | --- | --- | --- | --- | --- | --- | --- | --- | --- | --- | --- | --- | --- | --- | --- | --- |
| CCN(CC)CCNc1ccc(CO)c2sc3ccccc3c(=O)c12 [Hycanthone, reference compound] | 1 µM | 1 µM | 1 µM | 103% | 1 µM | 71% | 1 µM | 1 µM | Q2 | > 50% | > 50% | Q2 | Q2 | 2% | 2% | > 20 µM | 11 µM | – | – | – | IC50 ([1]; Table 7, read-out: fib_IC50): 0.619 µM; IC50 ([2]; Table 7, read-out: LPS_IC50): 0.354 µM; Activity ([3]; Table 7, fib = fibrin, LPS, tox = toxicity): fib/LPS |
| Cc1cccc(C(=O)O)c1O [Hydroxytoluic acid, reference compound] | 20 µM | 20 µM | 20 µM | 69% | > 20 µM | 33% | > 20 µM | > 20 µM | Q3 | > 50% | > 50% | Q3 | Q3 | 1% | 0% | > 20 µM | > 20 µM | – | – | – | – |
| C[C@@H](O)[C@H]1C(=O)N2C(C(=O)O)=C(SCCN=CN)C[C@H]12 [Imipenem, reference compound] | – | – | – | – | – | – | – | – | – | – | – | – | – | 1% | 0% | > 20 µM | > 20 µM | > 20 µM | > 20 µM | > 20 µM | IC50 ([2]; 48 h, read-out: LPS IC50): > 20 µM; IC50 ([2]; read-out: LPS IC50 (uM)): > 20 µM; IC50 [2, 21]: > 20 µM; Quadrant (FIG. 5b) [3]: Q3; inhibition at 10 µM [3, 22]: > 50%; inhibition at 10 µM ([3]; Microglia, read-out: Hit): > 50% |
| COC(=O)Nc1nc2ccc(C(=O)c3ccccc3)cc2[nH]1 [Mebendazole, reference compound] | 0.2 µM | 0.2 µM | 0.2 µM | 57% | 6 µM | 72% | 6 µM | 6 µM | Q2 | > 50% | – | Q2 | Q2 | 1% | 2% | > 20 µM | > 20 µM | – | – | – | Fibrin Selectivity [1]: 31; Fibrin Selectivity (LOG10) [1]: 1.49; IC50 ([1]; Table 3, read-out: Fibrin IC50 (uM) (Suppl. Table 7)): 0.2 µM; IC50 ([2]; Table 3, read-out: LPS IC50 (uM) (Suppl. Table 7)): 6 µM; inhibition at 10 µM ([3]; Microglia, Table 3, read-out: Cherry-picked Hit (Suppl. Table 7)): > 50%; Quadrant (FIG. 5b) ([3]; Table 3, screen at 10 μM): Q2 |
| COc1ccc(O)cc1 [Mequinol, reference compound] | – | – | – | – | – | – | – | – | – | – | – | – | – | 2% | 1% | > 20 µM | > 20 µM | > 20 µM | > 20 µM | > 20 µM | inhibition at 10 µM [1]: 98%; inhibition at 10 µM ([2]; 48 h): 76%; IC50 ([2]; 48 h, read-out: LPS IC50): > 20 µM; IC50 ([2]; read-out: LPS IC50 (uM)): > 20 µM; IC50 [2, 21]: > 20 µM; Quadrant (FIG. 5b) [3]: Q2; inhibition at 10 µM [3, 22]: > 50%; inhibition at 10 µM ([3]; Microglia, read-out: Hit): > 50% |
| COC(=O)C(c1ccccc1)C1CCCCN1 (centres unmarked) [Methylphenidate hydrochloride, reference compound] | > 20 µM | > 20 µM | > 20 µM | 81% | > 20 µM | 75% | > 20 µM | > 20 µM | Q2 | > 50% | > 50% | Q2 | Q2 | 2% | 1% | – | > 20 µM | – | – | – | IC50 ([6]; cFib assay): > 20 µM |
